According to patent publication US20160115540A1, “PRODRUGS AND DRUGS” (Biogen MA Inc., priority 2013, published 2016):
Counter-ions that a name gives are not always drawn.

System: liver
Assay: Transcriptional profiling on Affymetrix GeneChips, single dose, naïve mice: liver
Type: in vivo, C57BL/6 mice
Settings: liver
Protocol: Treated mice were sacrificed at 2, 7, or 12 hours. Tissues (liver, spleen, kidney, jejunum, cortex, hippocampus, striatum and whole blood) were collected and analyzed by transcriptional profiling on mouse Affymetrix GeneChips.
Tissues (liver, spleen, kidney, jejunum, cortex, hippocampus, striatum and whole blood) were collected and analyzed by transcriptional profiling on mouse Affymetrix GeneChips.
Animals were exposed to CO2 and whole blood collected via cardiac puncture. Two 100 μl aliquots of whole blood were collected in 1.5 mL microcentrifuge tubes and snap frozen in liquid nitrogen. Peripheral (liver, spleen, kidney and jejunum) and CNS brain (cerebellum, hippocampus, striatum and cortex) tissues were harvested and snap frozen in liquid nitrogen, with special care taken to collect tissues of similar size and from the same location. All samples were stored at −80° C. until RNA extraction was conducted.
For RNA preparation, frozen tissues were placed in 2 mL RNAse-free 96-well blocks with 1.5 mL QIAzol Lysis Reagent (QIAgen) and a 3.2 mm stainless steel bead (BioSpec Products, Bartlesville, Okla.). Tissues were disrupted for four cycles of 45 seconds in a Mini-Beadbeater (Biospec Products). RNA was extracted in chloroform and the aqueous phase was mixed with an equal volume of 70% ethanol. Extracted RNA was applied to RNeasy 96 plates and purified by the spin method according to the manufacturer's protocol (RNeasy 96 Universal Tissue Protocol, QIAgen, Hilden Germany).
Automated sample amplifications and biotin labelings were carried out using the NuGEN Ovation RNA Amplification system V2 (Cat #3100), Ovation WB reagent (Cat #1300) and Encore Biotin module (Cat #4200) (NuGEN Technologies, Inc, San Carlos, Calif.) according to manufacturer's recommendations using an Arrayplex automated liquid handler (Beckman Coulter, Indianapolis, Ind.). Two micrograms of biotin labeled sscDNA probe were hybridized to Affymetrix GeneChip Affymetrix HT_MG-430_PM plate arrays with modified conditions as described in Allaire et al. Washing and staining of the hybridized arrays were completed as described in the GeneChip Expression analysis technical manual for HT plate arrays using the Genechip® Array Station (Affymetrix, Santa Clara, Calif.) with modifications as described in Allaire et al. The processed GeneChip® plate arrays were scanned using GeneTitan scanner (Affymetrix, Santa Clara, Calif.).
Affymetrix scans were subject to quality control (QC) measures. These tests included a visual inspection of the distribution of raw signal intensities and an assessment of RNA degradation, relative log expression (RLE), and normalized unsealed standard error (NUSE). All sample scans that passed these QC metrics were included in the analysis.
All CEL files were subjected to GC-content-based Robust Multi-array Average (GCRMA) normalization (version 2.20.0) (Irizarry R A, et al. Nucleic Acids Res 2003; 31:e15; Li C, et al. Genome Biol 2001; 2:[…]0032). Expression levels were log (base 2) transformed.
All calculations and analyses were carried out using R (version 2.11.1) and Bioconductor computational tools (Gentleman R. Springer Science+Business Media 2005).

[1] = 100 mg/kg, 7 hr, vs matched vehicle controls
[2] = 100 mg/kg, 12 hr, vs matched vehicle controls

COC(=O)/C=C/C(=O)O [MMF, monomethyl fumarate]
Murine Liver DEGs: Srxn1 (1419942_PM_at) (100 mg/kg, 2 hr, vs matched vehicle controls): 1.68 | Murine Liver DEGs: Akr1b8 (1448894_PM_at) [1]: 1.75 | Murine Liver DEGs: Bmp6 (1450759_PM_at) [1]: 1.65 | Murine Liver DEGs: Cda (1427357_PM_at) [1]: 1.92 | Murine Liver DEGs: Clec4n (1419627_PM_s_at) [1]: 2.40 | Murine Liver DEGs: Erc2 (1434582_PM_at) [1]: −1.95 | Murine Liver DEGs: Fzd8 (1445815_PM_at) [1]: −1.81 | Murine Liver DEGs: G6pdx (1448354_PM_at) [1]: 1.61 | Murine Liver DEGs: Irak3 (1435040_PM_at) [1]: 1.53 | Murine Liver DEGs: Marco (1449498_PM_at) [1]: 2.44 | Murine Liver DEGs: Nqo1 (1423627_PM_at) [1]: 2.20 | Murine Liver DEGs: Pir (1429001_PM_at) [1]: 1.50 | Murine Liver DEGs: Srxn1 (1419942_PM_at) [1]: 1.52 | Murine Liver DEGs: Ablim1 (1453103_PM_at) [2]: −1.51 | Murine Liver DEGs: Atp6v0d2 (1444176_PM_at) [2]: 1.84 | Murine Liver DEGs: Car3 (1460256_PM_at) [2]: −1.57 | Murine Liver DEGs: Ccnf (1443807_PM_x_at) [2]: 1.57 | Murine Liver DEGs: Clmn (1439117_PM_at) [2]: −1.54 | Murine Liver DEGs: Ctla2a (1448471_PM_a_at) [2]: 1.63 | Murine Liver DEGs: Dnajc12 (1417441_PM_at) [2]: 2.53 | Murine Liver DEGs: Fndc3b (1433833_PM_at) [2]: 1.66 | Murine Liver DEGs: Gadd45b (1450971_PM_at) [2]: 1.50 | Murine Liver DEGs: Gm3579 (1431214_PM_at) [2]: 2.74 | Murine Liver DEGs: Hyou1 (1423290_PM_at) [2]: 1.82 | Murine Liver DEGs: Lrrc59 (1416235_PM_at) [2]: 1.65 | Murine Liver DEGs: Nme6 (1448574_PM_at) [2]: 1.57 | Murine Liver DEGs: Ppapdc1b (1428154_PM_s_at) [2]: 1.87 | Murine Liver DEGs: Ppm1k (1441988_PM_at) [2]: −1.56 | Murine Liver DEGs: Prtn3 (1419669_PM_at) [2]: 4.46 | Abcc1 (probe set 1452233_PM_at) differential expression (2 hr): 1.86 | Akr1b8 (probe set 1448894_PM_at) differential expression (2 hr): 2.27 | Ampd3 (probe set 1422573_PM_at) differential expression (2 hr): 1.70 | Caprin1 (probe set 1448348_PM_at) differential expression (2 hr): −1.56 | Clec4d (probe set 1420804_PM_s_at) differential expression (2 hr): 2.05 | Cmah (probe set 1447019_PM_at) differential expression (2 hr): −1.55 | Csnk2a1 (probe set 1419038_PM_a_at) differential expression (2 hr): −1.62 | Figf (probe set 1438953_PM_at) differential expression (2 hr): 2.25 | Fxr1 (probe set 1452247_PM_at) differential expression (2 hr): −1.53 | Gclc (probe set 1424296_PM_at) differential expression (2 hr): 1.72 | Hmox1 (probe set 1448239_PM_at) differential expression (2 hr): 2.41 | Meis2 (probe set 1440091_PM_at) differential expression (2 hr): −1.67 | Mkln1 (probe set 1416734_PM_at) differential expression (2 hr): −1.69 | Pgd (probe set 1436771_PM_x_at) differential expression (2 hr): 1.61 | Ppfibp2 (probe set 1417801_PM_a_at) differential expression (2 hr): 2.55 | Prpf38b (probe set 1455016_PM_at) differential expression (2 hr): −1.53 | Ptprb (probe set 1453908_PM_at) differential expression (2 hr): −1.76 | Ptprg (probe set 1456070_PM_at) differential expression (2 hr): −1.85 | Srxn1 (probe set 1419942_PM_at) differential expression (2 hr): 1.68 | Akr1b8 (probe set 1448894_PM_at) differential expression (7 hr): 1.75 | Bmp6 (probe set 1450759_PM_at) differential expression (7 hr): 1.65 | Cda (probe set 1427357_PM_at) differential expression (7 hr): 1.92 | Clec4n (probe set 1419627_PM_s_at) differential expression (7 hr): 2.40 | Erc2 (probe set 1434582_PM_at) differential expression (7 hr): −1.95 | Fzd8 (probe set 1445815_PM_at) differential expression (7 hr): −1.81 | G6pdx (probe set 1448354_PM_at) differential expression (7 hr): 1.61 | Irak3 (probe set 1435040_PM_at) differential expression (7 hr): 1.53 | Marco (probe set 1449498_PM_at) differential expression (7 hr): 2.44 | Nqo1 (probe set 1423627_PM_at) differential expression (7 hr): 2.20 | Pir (probe set 1429001_PM_at) differential expression (7 hr): 1.50 | Srxn1 (probe set 1419942_PM_at) differential expression (7 hr): 1.52 | Ablim1 (probe set 1453103_PM_at) differential expression (12 hr): −1.51 | Atp6v0d2 (probe set 1444176_PM_at) differential expression (12 hr): 1.84 | Car3 (probe set 1460256_PM_at) differential expression (12 hr): −1.57 | Ccnf (probe set 1443807_PM_x_at) differential expression (12 hr): 1.57 | Clmn (probe set 1439117_PM_at) differential expression (12 hr): −1.54 | Ctla2a (probe set 1448471_PM_a_at) differential expression (12 hr): 1.63 | Dnajc12 (probe set 1417441_PM_at) differential expression (12 hr): 2.53 | Fndc3b (probe set 1433833_PM_at) differential expression (12 hr): 1.66 | Gadd45b (probe set 1450971_PM_at) differential expression (12 hr): 1.50 | Gm3579 (probe set 1431214_PM_at) differential expression (12 hr): 2.74 | Hyou1 (probe set 1423290_PM_at) differential expression (12 hr): 1.82 | Lrrc59 (probe set 1416235_PM_at) differential expression (12 hr): 1.65 | Nme6 (probe set 1448574_PM_at) differential expression (12 hr): 1.57 | Ppapdc1b (probe set 1428154_PM_s_at) differential expression (12 hr): 1.87 | Ppm1k (probe set 1441988_PM_at) differential expression (12 hr): −1.56 | Prtn3 (probe set 1419669_PM_at) differential expression (12 hr): 4.46
